Experimental data reported in patent US20140315999A1, “USE OF PROLYL H[…] A RADIOPROTECTIVE DRUG FOR THE LOWER GASTROINTESTINAL TRACT” (priority 2011, published 2014).

Columns and labels:
[1] = Mortality, GI toxicity and gross intestinal morphology after DMOG injection; format: in vivo, male C57Bl/6 mice; conditions: 8 mg DMOG intraperitoneally, mice
GI epithelia = assay: FITC-dextran assay of the GI tract (epithelial integrity) after irradiation; format: in vivo, mice; conditions: 20 Gy; gavage 0.6 mg/kg FITC-dextran (4 kD); measured four hours later (FIG. 4)
Experimental: FIG. 4 depicts the concentration of FITC-Dextran present in the serum of mice gavaged with 0.6 mg./kg. FITC-Dextran (4 kD) either with or without irradiation and with or without DMOG. Six mice were tested per experimental condition. *p<0.04
Mortality from GI radiotoxicity results from compromised epithelial integrity manifesting as uncontrolled diarrhea or infections from enteric pathogens due to decreased barrier function. To test whether a PHD inhibitor would increase epithelial integrity after radiation insult, a FITC-dextran assay of the GI tract was performed. FITC-dextran cannot cross the GI epithelia, thus its presence in serum is an indication of compromised epithelial integrity. Following irradiation (20 Gy), mice underwent gavage, with the insertion of 0.6 mg/kg of FITC-dextran (4 kD). Four hours later, levels of FITC-dextran were measured in the blood. Treatment with DMOG results in a 3.5-fold decrease in the presence of FITC-dextran in the serum relative to saline control (FIG. 4).

[2] = system: mice receiving 20 Gy of abdominal radiation; assay: Survival following whole-abdominal irradiation (Kaplan-Meier); format: in vivo; conditions: 20 Gy abdominal radiation, DMOG treatment vs none (FIG. 5)
Text: FIG. 5 depicts Kaplan-Meier survival analysis of mice following whole-abdominal irradiation (20 Gy) with and without DMOG treatment. p=0.03 (n=12).

HIF-2 = assay: Western blot for HIF-2 in colonic crypts after DMOG injection; format: in vivo, male C57Bl/6 mice; conditions: 8 mg DMOG intraperitoneally; 4-12 after DMOG administration
Experimental: (§1) FIG. 1 depicts a Western blot for HIF-1, HIF-2, and β-actin in colonic crypts at the time points indicated after DMOG injection (8 mg.) Each lane represents a different animal.
(§2) In order to assess the kinetic effects of DMOG on the HIF-1 and HIF-2 protein levels, male C57Bl/6 mice were injected with 8 mg. of DMOG intraperitoneally and colonic crypts were harvested at various time points after injection (FIG. 1). A 8 mg dose results in the elevation of HIF1 and HIF2 proteins 4-12 after DMOG administration as determined by Western blot analysis.

HIF-1 = assay: Western blot for HIF-1 in colonic crypts after DMOG injection; format: in vivo, male C57Bl/6 mice; conditions: 8 mg DMOG intraperitoneally; 4-12 after DMOG administration
Experimental: as §1, §2

intestinal stem cells = assay: Microcolony analysis of colon crypt regeneration after 20 Gy abdominal irradiation; format: in vivo, mice
Experimental: FIG. 2 is a graphical depiction of the crypts identified in transverse sections of colon stained with hematoxylin-eosin (H & E) after they were treated with saline or DMOG 16 hours before radiation, 4 hours before radiation, and then every 24 hours after receiving 20 Gy of abdominal radiation. The data represents the combined results from 8 mice receiving either DMOG or saline. Sixteen sections were analyzed per mouse. *p<0.006.
FIG. 3 is a graphical depiction of the crypts identified in transverse sections of colon stained with H & E in mice irradiated before administration of DMOG. Mice were treated with saline or DMOG 2 hours after receiving 20 Gy of abdominal radiation and then once every 24 hours thereafter for 4.5 days. x-axis, left bar mice treated with saline, right bar mice treated with DMOG; y-axis regenerated crypts. *p<0.005.
Radio- and chemotoxicity to the GI tract is the result of damage to the intestinal stem cell located within the crypts of Lieberkühn. The intestinal stem cell, defined by its expression of LGR5 is the most rapidly dividing cell in the GI tract and is therefore susceptible to genotoxic damage. […]

COC(=O)CNC(=O)C(=O)OC [DMOG, N-(methoxyoxoacetyl)-glycine methyl ester]
gross morphological changes in the intestine [1]: nor was there obvious gross morphological changes in the intestine | mortality or GI toxicity [1]: no observed increase in mortality or GI toxicity | decrease in FITC-dextran in the serum relative to saline control (GI epithelia): 3.5 fold | overall survival [2]: dramatically improved | HIF2 protein level in colonic crypts (Western blot) (HIF-2): elevation | HIF1 protein level in colonic crypts (Western blot) (HIF-1): elevation | enrichment in regenerative capacity of colon relative to saline alone (regenerated crypts) (intestinal stem cells; 8 mg DMOG prior to 20 Gy whole-abdomen irradiation, then daily, sacrifice 4.5 days post irradiation (FIG. 2)): 2 fold | enrichment in regenerative capacity of colon relative to saline alone (regenerated crypts) (intestinal stem cells; DMOG administered after 20 Gy whole-abdomen irradiation (2 hours after, then every 24 hours), 4.5 days (FIG. 3)): 2 fold
